Laboratory results: patent US20090306160A1, “METHODS FOR IMPROVING DRUG DISPOSITION” (priority 2005, published 2009)

Key:
MRP2 [1] = molecular target: T1, MRP2 (Homo sapiens, UniProt Q92887); assay: Vesicular uptake assay of [3H]LTC4 in membrane vesicles over-expressing MRP2; format: biochemical; settings: [3H]LTC4 0.2 μM; for Vesicular uptake, AMP activation / Vesicular uptake, ATP activation: MRP2 vesicles
Method: (§1) In this assay ATP-dependent uptake into membrane vesicles with inside-out orientation is determined. Interaction of Compound I with ABC transporters is measured indirectly by incubating the purified membrane vesicles with known radioactive probe substrates ([^3H]LTC4 [0.2 μM] for MRP2-LTC4 stands for Leutriene C4- and [^3H]E1S [0.5 μM] -E1S stands for […]—for BCRP) in the presence and absence (negative control) of different concentrations of Compound I or a well-known positive control compound (Benzbromanone for MRP2 and Sulphasalazine for BCRP). As illustrated herein (Tables 2 and 3), Compound I inhibits [^3H]E1S as well as [^3H]LTC4 transport mediated by BCRP (IC50≅1 μM) and MRP2 (IC50≅50 μM), respectively.

MRP2 [2] = molecular target: T1, MRP2; assay: ATPase assay, reconstituted membranes expressing high levels of MRP2; format: biochemical
Text: (§2) In this assay the ABC transporters remove substrates out of reconstituted cell membranes by using ATP hydrolysis as an energy source. ATP hydrolysis yields inorganic phosphate (Pi), which can be detected by a simple colorimetric reaction. The amount of Pi liberated by the transporter is proportional to the activity of the transporter. Membrane preparations containing ABC transporters show a baseline ATPase activity that varies for different transporters. Transported substrates increase this baseline ATPase activity. […] No activation of the MDR1 efflux could be observed.

BCRP [3] = molecular target: T2, BCRP (Homo sapiens, UniProt Q9UNQ0); assay: ATPase assay, reconstituted membranes expressing high levels of BCRP; format: biochemical
T2 sequence (Q9UNQ0 1-655): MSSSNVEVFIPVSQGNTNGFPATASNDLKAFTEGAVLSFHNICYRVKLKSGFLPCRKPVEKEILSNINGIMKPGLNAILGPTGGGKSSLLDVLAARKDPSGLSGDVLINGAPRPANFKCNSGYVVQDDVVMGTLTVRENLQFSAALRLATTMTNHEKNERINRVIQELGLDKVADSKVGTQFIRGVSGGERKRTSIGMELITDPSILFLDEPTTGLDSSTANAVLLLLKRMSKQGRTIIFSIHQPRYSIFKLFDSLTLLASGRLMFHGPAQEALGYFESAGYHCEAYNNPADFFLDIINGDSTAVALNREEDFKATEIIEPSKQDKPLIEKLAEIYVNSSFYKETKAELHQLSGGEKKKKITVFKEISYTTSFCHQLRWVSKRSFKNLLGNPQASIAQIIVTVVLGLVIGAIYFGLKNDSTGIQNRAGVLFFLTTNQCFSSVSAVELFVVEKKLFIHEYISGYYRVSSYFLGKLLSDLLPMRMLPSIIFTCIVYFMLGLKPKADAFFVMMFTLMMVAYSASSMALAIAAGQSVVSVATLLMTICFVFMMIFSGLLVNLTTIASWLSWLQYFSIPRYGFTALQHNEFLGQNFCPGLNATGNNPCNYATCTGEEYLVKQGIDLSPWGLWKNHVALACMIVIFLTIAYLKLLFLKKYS
Text: as §2

BCRP [4] = molecular target: T2, BCRP; assay: Vesicular uptake assay of [3H]E1S in membrane vesicles over-expressing BCRP; format: biochemical; settings: [3H]E1S 0.5 μM, read-out: IC50, inhibition of [3H]E1S transport mediated by BCRP
Method: as §1

Caco-2 cell monolayers = assay: Caco-2 bi-directional permeability assay; format: in vitro ADME; settings: Caco-2 cell monolayers
Method: (§3) Alternatively, the in vitro transporter affinity of a drug substance can be determined and approximated by measuring the compound permeability across cells known to express ABC transporters, as e.g. the Caco-2 cell line. Interaction of Compound I with ABC transporter(s) is measured by determining the concentration-dependent compound transport across Caco-2 cell monolayers from the apical (AP) to basolateral (BL) as well as the basolateral to apical side.

[5] = Caco-2 bi-directional permeability assay; format: in vitro ADME; settings: human, Caco-2
Method: as §3

MDR1 = MDR1 (Homo sapiens, UniProt P08183); assay: ATPase assay, reconstituted membranes expressing high levels of MDR1; format: biochemical; settings: for ATPase activity: MDR1 membranes
Text: as §2

T1 sequence (Q92887 whole entry, species assumed): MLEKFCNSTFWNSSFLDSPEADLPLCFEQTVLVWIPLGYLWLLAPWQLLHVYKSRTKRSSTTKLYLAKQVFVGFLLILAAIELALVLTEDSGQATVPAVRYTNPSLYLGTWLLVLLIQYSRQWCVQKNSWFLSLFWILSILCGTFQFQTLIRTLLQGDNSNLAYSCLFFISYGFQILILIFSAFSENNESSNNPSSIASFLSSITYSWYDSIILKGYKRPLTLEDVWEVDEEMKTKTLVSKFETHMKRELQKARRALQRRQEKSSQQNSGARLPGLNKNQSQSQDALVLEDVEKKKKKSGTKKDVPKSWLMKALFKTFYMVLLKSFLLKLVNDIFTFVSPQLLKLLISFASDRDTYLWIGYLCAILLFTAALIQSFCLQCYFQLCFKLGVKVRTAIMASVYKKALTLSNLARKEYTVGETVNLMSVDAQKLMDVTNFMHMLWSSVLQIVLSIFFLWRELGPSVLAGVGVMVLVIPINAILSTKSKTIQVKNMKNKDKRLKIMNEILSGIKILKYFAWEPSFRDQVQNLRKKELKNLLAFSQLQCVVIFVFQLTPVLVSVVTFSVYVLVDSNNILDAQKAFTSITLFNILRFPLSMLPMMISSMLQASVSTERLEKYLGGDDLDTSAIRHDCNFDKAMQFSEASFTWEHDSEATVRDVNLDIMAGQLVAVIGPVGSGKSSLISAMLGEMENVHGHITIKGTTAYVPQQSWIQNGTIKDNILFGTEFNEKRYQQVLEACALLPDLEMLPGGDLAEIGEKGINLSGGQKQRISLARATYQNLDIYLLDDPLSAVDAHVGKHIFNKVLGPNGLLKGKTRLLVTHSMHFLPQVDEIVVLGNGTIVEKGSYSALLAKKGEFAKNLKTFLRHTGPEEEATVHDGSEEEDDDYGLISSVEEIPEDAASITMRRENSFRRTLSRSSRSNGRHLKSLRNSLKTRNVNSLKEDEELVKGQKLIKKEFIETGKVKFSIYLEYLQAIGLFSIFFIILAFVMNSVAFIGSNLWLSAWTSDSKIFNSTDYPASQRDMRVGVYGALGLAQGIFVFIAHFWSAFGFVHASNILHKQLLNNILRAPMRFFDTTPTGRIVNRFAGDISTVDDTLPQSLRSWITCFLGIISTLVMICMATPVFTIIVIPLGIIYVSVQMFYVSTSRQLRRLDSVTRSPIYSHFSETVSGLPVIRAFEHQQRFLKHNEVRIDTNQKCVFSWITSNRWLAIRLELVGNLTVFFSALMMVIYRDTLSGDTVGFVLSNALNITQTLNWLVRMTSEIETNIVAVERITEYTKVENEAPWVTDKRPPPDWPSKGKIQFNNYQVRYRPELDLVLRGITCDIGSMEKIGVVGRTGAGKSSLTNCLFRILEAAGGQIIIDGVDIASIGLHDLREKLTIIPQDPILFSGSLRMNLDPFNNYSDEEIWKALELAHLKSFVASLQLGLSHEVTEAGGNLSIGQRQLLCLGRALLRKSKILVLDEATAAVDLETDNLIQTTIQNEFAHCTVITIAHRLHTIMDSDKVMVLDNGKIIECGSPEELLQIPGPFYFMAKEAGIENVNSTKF
MDR1, sequence (P08183 whole entry, species assumed): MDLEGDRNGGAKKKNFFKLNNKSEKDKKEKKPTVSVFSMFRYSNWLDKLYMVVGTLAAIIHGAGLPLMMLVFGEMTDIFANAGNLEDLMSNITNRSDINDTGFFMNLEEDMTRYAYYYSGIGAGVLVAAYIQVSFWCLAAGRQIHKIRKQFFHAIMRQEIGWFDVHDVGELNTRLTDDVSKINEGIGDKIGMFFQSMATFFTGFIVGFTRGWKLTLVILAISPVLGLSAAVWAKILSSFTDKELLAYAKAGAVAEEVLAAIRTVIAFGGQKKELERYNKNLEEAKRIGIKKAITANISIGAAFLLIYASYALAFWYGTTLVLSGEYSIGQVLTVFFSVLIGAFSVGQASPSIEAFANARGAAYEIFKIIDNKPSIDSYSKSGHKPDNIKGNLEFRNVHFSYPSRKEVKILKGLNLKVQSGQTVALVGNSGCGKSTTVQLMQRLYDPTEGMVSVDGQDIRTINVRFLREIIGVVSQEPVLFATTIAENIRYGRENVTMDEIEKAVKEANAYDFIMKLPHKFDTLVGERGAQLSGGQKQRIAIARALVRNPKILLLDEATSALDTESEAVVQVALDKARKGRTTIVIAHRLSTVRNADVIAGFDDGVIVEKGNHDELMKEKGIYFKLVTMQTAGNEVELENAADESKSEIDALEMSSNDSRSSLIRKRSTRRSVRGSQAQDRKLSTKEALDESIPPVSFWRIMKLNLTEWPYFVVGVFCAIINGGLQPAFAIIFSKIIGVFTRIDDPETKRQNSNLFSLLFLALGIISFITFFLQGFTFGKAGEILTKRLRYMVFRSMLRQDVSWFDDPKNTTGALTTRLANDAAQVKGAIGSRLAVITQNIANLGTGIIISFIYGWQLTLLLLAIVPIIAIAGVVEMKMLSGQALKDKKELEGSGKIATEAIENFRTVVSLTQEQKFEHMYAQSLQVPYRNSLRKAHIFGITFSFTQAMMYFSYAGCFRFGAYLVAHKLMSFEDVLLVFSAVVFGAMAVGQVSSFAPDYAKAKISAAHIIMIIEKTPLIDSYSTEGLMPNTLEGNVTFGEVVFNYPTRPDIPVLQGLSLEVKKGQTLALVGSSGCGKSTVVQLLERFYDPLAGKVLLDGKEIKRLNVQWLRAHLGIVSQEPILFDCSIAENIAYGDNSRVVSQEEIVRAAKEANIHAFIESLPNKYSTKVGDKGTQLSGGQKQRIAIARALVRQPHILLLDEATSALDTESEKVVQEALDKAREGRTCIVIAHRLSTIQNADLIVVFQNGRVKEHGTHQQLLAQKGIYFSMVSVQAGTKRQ

CCCCc1oc2ccccc2c1C(=O)c1cc(Br)c(O)c(Br)c1 [Benzbromanone, reference compound]
Vesicular uptake, AMP activation (MRP2 [1]; positive control conc. 3000 μM): 11.1 pmol/mg/min | Vesicular uptake, ATP activation (MRP2 [1]; positive control conc. 3000 μM): 10.8 pmol/mg/min

O=C(O)c1ccc(-n2nc(-c3ccccc3O)nc2-c2ccccc2O)cc1 [Compound I, 4-[3,5-bis(2-hydroxyphenyl)-[1,2,4]trizol-1-yl]benzoic acid]
ATPase activity (MRP2 [2]; Compound I 0.04 μM): 5.1 ± 0.6 nmol Pi/min/mg protein | ATPase activity (MRP2 [2]; Compound I 0.13 μM): 5.4 ± 0.3 nmol Pi/min/mg protein | ATPase activity (MRP2 [2]; Compound I 0.40 μM): 5.4 ± 0.1 nmol Pi/min/mg protein | ATPase activity (MRP2 [2]; Compound I 1.21 μM): 5.1 ± 0.4 nmol Pi/min/mg protein | ATPase activity (MRP2 [2]; Compound I 3.63 μM): 5.0 ± 0.0 nmol Pi/min/mg protein | ATPase activity (MRP2 [2]; Compound I 10.89 μM): 5.2 ± 0.4 nmol Pi/min/mg protein | ATPase activity (MRP2 [2]; Compound I 32.67 μM): 6.3 ± 0.2 nmol Pi/min/mg protein | ATPase activity (MRP2 [2]; Compound I 98.0 μM): 8.3 ± 0.7 nmol Pi/min/mg protein | Vesicular uptake, AMP activation (MRP2 [1]; compound conc. 10 μM): 5.4 pmol/mg/min | Vesicular uptake, ATP activation (MRP2 [1]; compound conc. 10 μM): 25.6 pmol/mg/min | Vesicular uptake, AMP activation (MRP2 [1]; compound conc. 100 μM): 5.8 pmol/mg/min | Vesicular uptake, ATP activation (MRP2 [1]; compound conc. 100 μM): 11.5 pmol/mg/min | IC50 (MRP2 [1]; membrane vesicles, read-out: IC50, inhibition of [3H]LTC4 transport mediated by MRP2): ~50 µM | ATPase activity (BCRP [3]; Compound I 0.04 μM): 32.9 ± 1.0 nmol Pi/min/mg protein | ATPase activity (BCRP [3]; Compound I 0.13 μM): 35.5 ± 0.8 nmol Pi/min/mg protein | ATPase activity (BCRP [3]; Compound I 0.40 μM): 34.2 ± 8.0 nmol Pi/min/mg protein | ATPase activity (BCRP [3]; Compound I 1.21 μM): 49.4 ± 0.5 nmol Pi/min/mg protein | ATPase activity (BCRP [3]; Compound I 3.63 μM): 61.1 ± 0.3 nmol Pi/min/mg protein | ATPase activity (BCRP [3]; Compound I 10.89 μM): 65.9 ± 0.1 nmol Pi/min/mg protein | ATPase activity (BCRP [3]; Compound I 32.67 μM): 65.7 ± 0.5 nmol Pi/min/mg protein | ATPase activity (BCRP [3]; Compound I 98.0 μM): 60.3 ± 1.6 nmol Pi/min/mg protein | IC50 (BCRP [4]): ~1 µM | concentration at which bi-directional permeability values converge (complete efflux transporter saturation) (Caco-2 cell monolayers): about 50 μM | efflux substrate identification (Caco-2 cell monolayers; AP-BL vs BL-AP transport): substrate for one or several prominent efflux system(s) | Km (Caco-2 cell monolayers; bi-directional transport, read-out: apparent Km of efflux transport): ~5 µM | Papp A→B at 1 μM ([5]; apical to basolateral, conc. 1 μM, read-out: Caco-2 permeability Papp(AP-BL) (converted)): 10 nm/s | Papp A→B at 5 μM ([5]; apical to basolateral, conc. 5 μM, read-out: Caco-2 permeability Papp(AP-BL) (converted)): 76.7 nm/s | Papp A→B at 10 μM ([5]; apical to basolateral, conc. 10 μM, read-out: Caco-2 permeability Papp(AP-BL) (converted)): 116 nm/s | Papp A→B at 50 μM ([5]; apical to basolateral, conc. 50 μM, read-out: Caco-2 permeability Papp(AP-BL) (converted)): 146 nm/s | Papp B→A at 1 μM ([5]; basolateral to apical, conc. 1 μM, read-out: Caco-2 permeability Papp(BL-AP) (converted)): 155 nm/s | Papp B→A at 5 μM ([5]; basolateral to apical, conc. 5 μM, read-out: Caco-2 permeability Papp(BL-AP) (converted)): 238 nm/s | Papp B→A at 10 μM ([5]; basolateral to apical, conc. 10 μM, read-out: Caco-2 permeability Papp(BL-AP) (converted)): 222 nm/s | Papp B→A at 50 μM ([5]; basolateral to apical, conc. 50 μM, read-out: Caco-2 permeability Papp(BL-AP) (converted)): 215 nm/s | ATPase activity (MDR1; Compound I 0.04 μM): 18.7 ± 0.6 nmol Pi/min/mg protein | ATPase activity (MDR1; Compound I 0.13 μM): 18.0 ± 0.7 nmol Pi/min/mg protein | ATPase activity (MDR1; Compound I 0.40 μM): 17.4 ± 1.3 nmol Pi/min/mg protein | ATPase activity (MDR1; Compound I 1.21 μM): 17.0 ± 1.0 nmol Pi/min/mg protein | ATPase activity (MDR1; Compound I 3.63 μM): 17.3 ± 0.3 nmol Pi/min/mg protein | ATPase activity (MDR1; Compound I 10.89 μM): 17.3 ± 0.5 nmol Pi/min/mg protein | ATPase activity (MDR1; Compound I 32.67 μM): 17.3 ± 0.4 nmol Pi/min/mg protein | ATPase activity (MDR1; Compound I 98.0 μM): 16.7 ± 0.5 nmol Pi/min/mg protein | activation of the MDR1 efflux (ATPase) (MDR1; reconstituted membranes expressing high levels of MDR1): No activation
